Assay results taken from US20250066370A1, “BICYCLIC TRIAZINE DERIVATIVES FOR THE TREATMENT OF CANCER” (DEUTSCHES KREBSFORSCHUNGSZENTRUM, priority 2022, published 2025).
pIC50: −log10 of the molar value.

How the values were obtained:
[1] = system: CAL-120, human breast adenocarcinoma cells; assay: Proliferation assay CAL-120 (crystal violet); format: cell-based; details: 96 h, CAL-120 parental cells, 4 days, median, read-out: Prolif-CAL-120, IC50 - [mol/l] (median)
Description: (§1) Human tumour cells were originally obtained from the American Type Culture Collection (ATCC), or from the Deutsche Sammlung von Mikroorganismen und Zellkulturen (DSMZ, German Collection of Microorganisms and Cell Cultures). Cultivated tumour cells (CAL-120, human breast adenocarcinoma cells, DSMZ ACC-459; MDA-MB-231, human breast cancer cells, ATCC HTB-26) were plated at a density of 4,000 cells/well in a 96-well multitier plate in 200 microL of their respective growth medium supplemented 10% fetal calf serum. After 24 hours, the cells of one plate (zero-point plate) were stained with crystal violet (see below), while the medium of the other plates was supplemented with the test substances in various concentrations (0 micromol/L, as well as in the range of 0.01-10 micromol/L; the final concentration of the solvent dimethyl sulfoxide was adjusted to 0.1%) using a Tecan HP D300 Digital Dispenser. The cells were incubated for 4 days in the presence of test substances. Cell proliferation was determined by staining the cells with crystal violet: the cells were fixed by adding 20 microL/measuring point of an 11% glutaric aldehyde solution for 15 minutes at room temperature. After three washing cycles of the fixed cells with water, the plates were dried at room temperature. The cells were stained by adding 100 microL/measuring point of a 0.1% crystal violet solution (pH 3.0). After three washing cycles of the stained cells with water, the plates were dried at room temperature. The dye was dissolved by adding 100 microL/measuring point of a 10% acetic acid solution. The extinction was determined by photometry at a wavelength of 595 nm. The change of cell number, in percent, was calculated by normalization of the measured values to the extinction values of the zero-point plate (=0%) and the extinction of the untreated (0 μM) cells (=100%). The IC50 values (inhibitory concentration at 50% of maximal effect) were determined by means of a 4 parameter fit.

CDK12 = CDK12 (Homo sapiens (Human), UniProt Q9NYV4); assay: CDK12 nuclear protein level: immunofluorescence/high content analysis in CAL-120 cells; format: cell-based; details: 24 h, nuclear CDK12 staining intensity, median, read-out: CDK12 degradation IF, DC50 - [mol/l] (median)
Sequence of CDK12 (Q9NYV4 whole entry): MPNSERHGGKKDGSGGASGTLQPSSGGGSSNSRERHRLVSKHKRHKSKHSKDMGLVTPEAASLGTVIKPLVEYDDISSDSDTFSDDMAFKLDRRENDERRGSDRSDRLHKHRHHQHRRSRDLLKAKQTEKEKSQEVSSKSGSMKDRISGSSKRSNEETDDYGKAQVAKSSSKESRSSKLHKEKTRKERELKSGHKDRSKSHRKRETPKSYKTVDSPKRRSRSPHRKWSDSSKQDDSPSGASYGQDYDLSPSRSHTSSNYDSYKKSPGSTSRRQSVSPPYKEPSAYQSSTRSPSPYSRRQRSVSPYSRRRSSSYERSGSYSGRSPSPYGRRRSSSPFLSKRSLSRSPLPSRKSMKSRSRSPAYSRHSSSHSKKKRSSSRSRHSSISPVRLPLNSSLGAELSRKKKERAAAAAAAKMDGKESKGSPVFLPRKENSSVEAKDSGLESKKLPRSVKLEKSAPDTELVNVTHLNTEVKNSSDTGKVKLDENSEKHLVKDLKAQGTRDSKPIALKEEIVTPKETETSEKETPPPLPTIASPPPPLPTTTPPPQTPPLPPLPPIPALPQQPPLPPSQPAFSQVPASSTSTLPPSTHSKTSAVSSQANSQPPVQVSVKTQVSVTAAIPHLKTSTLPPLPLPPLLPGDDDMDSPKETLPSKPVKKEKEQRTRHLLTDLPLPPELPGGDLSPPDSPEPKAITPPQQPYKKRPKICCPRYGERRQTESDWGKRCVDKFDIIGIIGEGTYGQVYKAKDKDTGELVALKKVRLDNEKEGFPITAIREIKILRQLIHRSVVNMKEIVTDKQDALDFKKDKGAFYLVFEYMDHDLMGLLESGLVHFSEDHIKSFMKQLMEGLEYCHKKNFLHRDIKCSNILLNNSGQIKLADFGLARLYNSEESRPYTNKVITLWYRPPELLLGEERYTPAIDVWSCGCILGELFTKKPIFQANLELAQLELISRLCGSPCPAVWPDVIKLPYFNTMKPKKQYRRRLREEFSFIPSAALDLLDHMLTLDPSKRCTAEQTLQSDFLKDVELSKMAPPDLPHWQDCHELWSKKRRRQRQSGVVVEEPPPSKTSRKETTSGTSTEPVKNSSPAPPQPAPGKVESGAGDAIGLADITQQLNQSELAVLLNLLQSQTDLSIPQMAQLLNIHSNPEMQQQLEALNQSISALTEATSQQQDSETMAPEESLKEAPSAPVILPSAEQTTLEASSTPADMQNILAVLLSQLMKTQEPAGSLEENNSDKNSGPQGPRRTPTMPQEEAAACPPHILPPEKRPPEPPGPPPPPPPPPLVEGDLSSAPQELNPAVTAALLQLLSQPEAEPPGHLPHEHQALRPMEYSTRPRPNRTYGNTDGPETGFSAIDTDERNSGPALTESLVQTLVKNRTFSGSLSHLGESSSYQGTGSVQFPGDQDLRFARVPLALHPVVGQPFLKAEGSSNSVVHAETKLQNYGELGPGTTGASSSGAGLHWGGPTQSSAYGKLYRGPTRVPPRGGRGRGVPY
Sequence of CDK12 (O75909 whole entry partner): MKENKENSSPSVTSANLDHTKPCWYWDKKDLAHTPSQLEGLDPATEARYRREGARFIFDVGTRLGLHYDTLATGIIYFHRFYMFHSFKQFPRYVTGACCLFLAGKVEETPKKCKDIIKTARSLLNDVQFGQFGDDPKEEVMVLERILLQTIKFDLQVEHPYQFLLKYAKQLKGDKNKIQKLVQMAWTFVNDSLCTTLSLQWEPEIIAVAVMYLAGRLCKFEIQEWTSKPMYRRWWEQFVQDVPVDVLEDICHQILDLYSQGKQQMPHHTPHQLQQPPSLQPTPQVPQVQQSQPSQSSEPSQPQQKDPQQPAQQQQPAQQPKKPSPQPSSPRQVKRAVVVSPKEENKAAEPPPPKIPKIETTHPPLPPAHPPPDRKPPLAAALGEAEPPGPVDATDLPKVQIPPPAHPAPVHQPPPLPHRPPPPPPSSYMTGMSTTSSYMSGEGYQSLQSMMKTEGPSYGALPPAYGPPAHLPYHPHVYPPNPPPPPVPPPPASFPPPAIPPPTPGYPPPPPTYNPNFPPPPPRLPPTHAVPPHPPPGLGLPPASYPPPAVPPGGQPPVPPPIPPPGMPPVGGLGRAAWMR
Description: In the context of the present invention, the term “DC50 CDK12” refers to the DC50 values obtained according to the assay described in this section (7) herein below, i.e. the DC50 values for the degradation of CDK12.
(§2) CAL-120 human breast cancer cells (DSMZ ACC 459) are seeded in 1536-well microtiter plates (800 cells per well) containing 50 nanoL of compounds in Dose-Response. Control wells received DMSO or Example 4. Plates are then incubated for 24 h at 37° C. in an humidified incubator and fixed with 4% PFA for 10 min. Then immunofluorescence (IF) against CDK12 (CellSignalling CDK12 Antibody #11973, rabbit, 1:100 dilution) is performed using standard IF protocols. Cells are then stained with Hoechst 33342 (Life Technologies, H-1399, 0.1 microg/ml) and imaged on an automated confocal microscopy system (e.g. Perkin Elmer Opera Phenix). Nuclear and cytoplasmic intensity as well as the nuclear/cytoplasmic intensity ratio is determined by automated image analysis using custom generated scripts (MetaXpress). Data is then transferred to Genedata Screener software, normalized to DMSO and control and DC50 values (degrading concentration to achieve 50% reduction of nuclear CDK12 staining intensity relative to controls) are reported.

[2] = system: MDA-MB-231, human breast cancer cells; assay: Proliferation assay MDA-MB-231 (crystal violet); format: cell-based; details: 96 h, MDA-MB-231 parental cells, 4 days, median, read-out: Prolif-MDA MB-231, IC50 - [mol/l] (median)
Description: as §1

CAL-120-CDK12d-res = assay: Proliferation assay CDK12 degrader resistant CAL-120; format: cell-based, human
Description: (§3) CDK12-degrader resistant cells were generated by propagation of CAL-120 human breast adenocarcinoma cells (DSMZ ACC-459) and MDA-MB-231 human breast cancer cells (ATCC HTB-26) in presence of increasing concentrations of the CDK12 degrader compound example 4 from WO 2021/116178. Initial concentrations of example 4 were 2.0E-08 M for CAL-120 cells and 4.6E-08 M for MDA-MB-231 cells, corresponding to ca. 2-fold the IC50 of inhibition of the cells in an proliferation assay. After the treated cells recovered and proliferated again the concentration of compound example 4 was increased to 3-fold IC50.
as §1, with “To determine the inhibitory effect of test compounds on proliferation of CAL-120-CDK12d-res, MDA-MB-231-CDK12d-res the” for “Human tumour”, “cells” for “cells were originally obtained from the American Type Culture Collection (ATCC), or from the Deutsche Sammlung von Mikroorganismen und Zellkulturen (DSMZ, German Collection of Microorganisms and Cell Cultures). Cultivated tumour cells (CAL-120, human breast adenocarcinoma cells, DSMZ ACC-459; MDA-MB-231, human breast cancer cells, ATCC HTB-26)”

MDA-MB-231-CDK12d-res = assay: Proliferation assay CDK12 degrader resistant MDA-MB-231; format: cell-based, human
Description: as §3
as §1, with “To determine the inhibitory effect of test compounds on proliferation of CAL-120-CDK12d-res, MDA-MB-231-CDK12d-res the” for “Human tumour”, “cells” for “cells were originally obtained from the American Type Culture Collection (ATCC), or from the Deutsche Sammlung von Mikroorganismen und Zellkulturen (DSMZ, German Collection of Microorganisms and Cell Cultures). Cultivated tumour cells (CAL-120, human breast adenocarcinoma cells, DSMZ ACC-459; MDA-MB-231, human breast cancer cells, ATCC HTB-26)”

CYCLIN K = CYCLIN K nuclear protein level: immunofluorescence/high content analysis in CAL-120 cells; format: cell-based, human; details: 24 h, nuclear CCNK staining intensity, median, read-out: CYCLIN K degradation IF, DC50 - [mol/l] (median)
Description: as §2, with “CYCLIN K (ThermoFisher Scientific CCNK” for “CDK12 (CellSignalling CDK12”, “#PA5-85020,” for “#11973,”, “1:200” for “1:100”, “CCNK” for “CDK12”

[3] = system: BRCA1 mRNA expression in MDA-MB-231 cells; assay: qRT-PCR assay: inhibition of BRCA1 mRNA expression in MDA-MB-231 cells; format: cell-based; details: Homo sapiens, 24 h exposure, BRCA1 normalised to GAPDH, median, read-out: RTqPCR-MDA-MB-231, IC50 [mol/l], BRCA1 (median)
Description: 3. qRT-PCR Assay: BRCA1, ATR, MCL1 in MDA-MB-231, CAL-120
Tissue cultured human MDA-MB-231 human breast cancer cells were plated in 500 microL per well at 200,000 cells/well in a 24 well microtiter plate. After 24 h, the cells were exposed continuously for 24 h to test substances (substances were added with Tecan HP D300 Dispenser). RNA was prepared using Qiagen RNeasy MiniKit (#74106), RNA was quantified using a NanoDrop Equipment, and 600 nano grams of RNA was converted to cDNA using a SuperScript VILO kit (Thermofisher #11755050) followed by qPCR amplification. BRCA1 and ATR gene expression was measured by RT-qPCR and normalised to GAPDH housekeeping gene expression. qPCR primer sets have been purchased from Thermo Fisher Scientific/Applied Biosystems: BRCA1, #Hs 01556193; ATR. #Hs 00992123: GAPDH. #Hs 03929097.

| Structure (SMILES) | pIC50 [1] | DC50 (CDK12) | pIC50 [2] | pIC50 (CAL-120-CDK12d-res; Homo sapiens, 96 h, CDK12 degrader resistant CAL-120 cells, 4 days, median, read-out: Prolif-CAL-120-CDK12d-res, IC50 - [mol/l] (median)) | Ratio (Prolif-CAL-120-CDK12d-res IC50 / Prolif-CAL-120 IC50) (CAL-120-CDK12d-res; resistant versus parental CAL-120 cells) | pIC50 (MDA-MB-231-CDK12d-res; Homo sapiens, 96 h, CDK12 degrader resistant MDA-MB-231 cells, 4 days, median, read-out: Prolif-MDA MB-231-CDK12d-res, IC50 - [mol/] (median)) | Ratio (Prolif-MDA MB-231-CDK12d-res IC50 / Prolif-MDA MB-231 IC50) (MDA-MB-231-CDK12d-res; resistant versus parental MDA-MB-231 cells) | DC50 (CYCLIN K) | pIC50 [3] |
| --- | --- | --- | --- | --- | --- | --- | --- | --- | --- |
| FC(F)(F)c1ccc(-c2nnc(CNc3nc(N4CCOCC4)nc4c(C(F)(F)F)cnn34)[nH]2)cn1 [Example 16, 2-(morpholin-4-yl)-8-(trifluoromethyl)-N-({5-[6-(trifluoromethyl)pyridin-3-yl]-4H-1,2,4-triazol-3-yl}methyl)pyrazolo[1,5-a][1,3,5]triazin-4-amine] | 6.68 | > 1000 nM | 6.75 | – | – | – | – | – | – |
| FC(F)(F)Oc1ccc(-c2nnc(CNc3nc(N4CCOCC4)nc4c(C(F)(F)F)cnn34)[nH]2)cn1 [Example 17, 2-(morpholin-4-yl)-N-({5-[6-(trifluoromethoxy)pyridin-3-yl]-4H-1,2,4-triazol-3-yl}methyl)-8-(trifluoromethyl)pyrazolo[1,5-a][1,3,5]triazin-4-amine] | 7.06 | > 1000 nM | 6.95 | 6.87 | 1.5 | 6.81 | 1.4 | > 1000 nM | – |
| COc1ccc(-c2cnc(CNc3nc(N4CCOCC4)nn4c(C(F)(F)F)cnc34)[nH]2)cc1 [Example 13, N-{[5-(4-methoxyphenyl)-1H-imidazol-2-yl]methyl}-2-(morpholin-4-yl)-7-(trifluoromethyl)imidazo[2,1-f][1,2,4]triazin-4-amine] | 7.53 | 120 nM | 7.07 | – | – | – | – | – | 7.24 |
